Data: US12103915B2, “TEAD inhibitors and methods of uses thereof” (Insilico Medicine IP Limited, priority 2022, dated 2024)

Assays:
Format in all cases: binding
TEAD2 = TEAD2 (Homo sapiens, UniProt Q15562); assay: Thermal shift assay TEAD2
Method: (§1) Example B: Thermal Shift Assay
(§2) 1) Prepare a fresh dilution of Protein Thermal Shift™ Dye (Applied Biosystems, 1000×) to 8× by […].
(§3) 2) To ensure the same DMSO concentration, the compounds were diluted as follows: Prepare 10 mM stock solution of compounds;
(§4) The final DMSO concentration was 0.1%
(§5) 10 μM: Diluting stock solution to 100 μM by using PBS.
(§6) 1 μM: Diluting stock solution to 1 mM by using DMSO, then dilute to 10 μM by using PBS.
(§7) TEAD1: the stock concentration was 2.9 mg/ml; the final concentration was 0.2 mg/ml. TEAD2: the stock concentration was 1.8 mg/ml; the final concentration was 0.08 mg/ml.
(§8) 4) Place the appropriate reaction plate or tubes on ice, then prepare the protein melt reactions:
(§9) 5) Pipet each reaction up and down 10 times to mix well.
(§10) 6) Seal the plate with MicroAmp™ Optical Adhesive Film, spin it at 1000 rpm for 1 minute.
(§11) 7) Set up and run on the qPCR instrument.
(§12) Using thermal Shift™ Software v1.3 to analysis.

TEAD4 = TEAD4 (Homo sapiens, UniProt Q15561); assay: Thermal shift assay TEAD4
Method: as §1, §2, §3, §4, §5, §6
TEAD4: the stock concentration was 2.3 mg/ml; the final concentration was 0.1 mg/ml.
as §8, §9, §10, §11, §12

TEAD3 = TEAD3 (Homo sapiens, UniProt Q99594); assay: Thermal shift assay TEAD3
Method: as §1, §2, §3, §4, §5, §6
TEAD3: the stock concentration was 2.4 mg/ml; the final concentration was 0.1 mg/ml.
as §8, §9, §10, §11, §12

TEAD1 = TEAD1 (Homo sapiens, UniProt P28347); assay: Thermal shift assay TEAD1
Method: as §1, §2, §3, §4, §5, §6, §7, §8, §9, §10, §11, §12

TEAD2, sequence (Q15562 whole entry, species assumed): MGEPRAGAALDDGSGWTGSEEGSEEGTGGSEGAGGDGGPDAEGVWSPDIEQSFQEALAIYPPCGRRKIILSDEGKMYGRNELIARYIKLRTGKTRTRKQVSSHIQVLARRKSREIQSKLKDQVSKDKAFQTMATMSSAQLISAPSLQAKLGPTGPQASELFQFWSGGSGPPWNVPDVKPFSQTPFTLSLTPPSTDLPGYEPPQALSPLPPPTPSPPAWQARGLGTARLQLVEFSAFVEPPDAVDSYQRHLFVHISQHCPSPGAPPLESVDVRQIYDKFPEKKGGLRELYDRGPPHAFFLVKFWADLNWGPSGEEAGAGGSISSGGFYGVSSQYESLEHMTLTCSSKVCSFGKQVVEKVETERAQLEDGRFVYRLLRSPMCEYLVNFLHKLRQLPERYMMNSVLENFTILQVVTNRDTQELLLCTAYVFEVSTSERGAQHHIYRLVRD
TEAD4, sequence (Q15561 whole entry, species assumed): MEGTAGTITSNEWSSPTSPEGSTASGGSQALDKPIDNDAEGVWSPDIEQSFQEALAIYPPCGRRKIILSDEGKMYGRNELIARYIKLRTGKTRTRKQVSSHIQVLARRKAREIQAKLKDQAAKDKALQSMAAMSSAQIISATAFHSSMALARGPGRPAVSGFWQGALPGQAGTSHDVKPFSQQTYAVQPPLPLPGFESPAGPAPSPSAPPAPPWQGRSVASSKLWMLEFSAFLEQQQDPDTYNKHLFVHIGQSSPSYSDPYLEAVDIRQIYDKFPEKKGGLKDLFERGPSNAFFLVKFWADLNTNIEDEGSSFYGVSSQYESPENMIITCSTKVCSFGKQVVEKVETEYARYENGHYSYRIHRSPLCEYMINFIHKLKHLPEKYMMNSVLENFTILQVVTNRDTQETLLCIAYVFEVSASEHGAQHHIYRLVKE
TEAD3, sequence (Q99594 whole entry, species assumed): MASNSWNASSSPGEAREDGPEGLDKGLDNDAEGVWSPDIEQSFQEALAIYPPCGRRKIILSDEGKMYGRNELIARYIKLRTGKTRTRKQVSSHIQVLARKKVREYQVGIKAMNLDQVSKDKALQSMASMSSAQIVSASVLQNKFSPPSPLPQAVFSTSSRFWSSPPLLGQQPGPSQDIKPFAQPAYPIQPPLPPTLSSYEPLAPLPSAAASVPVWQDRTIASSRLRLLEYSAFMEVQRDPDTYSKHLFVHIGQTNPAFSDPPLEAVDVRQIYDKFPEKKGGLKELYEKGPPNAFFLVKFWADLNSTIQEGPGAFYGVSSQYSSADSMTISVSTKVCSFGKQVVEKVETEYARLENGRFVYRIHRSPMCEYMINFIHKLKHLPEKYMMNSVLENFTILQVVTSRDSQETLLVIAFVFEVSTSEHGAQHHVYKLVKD
TEAD1, sequence (P28347 whole entry, species assumed): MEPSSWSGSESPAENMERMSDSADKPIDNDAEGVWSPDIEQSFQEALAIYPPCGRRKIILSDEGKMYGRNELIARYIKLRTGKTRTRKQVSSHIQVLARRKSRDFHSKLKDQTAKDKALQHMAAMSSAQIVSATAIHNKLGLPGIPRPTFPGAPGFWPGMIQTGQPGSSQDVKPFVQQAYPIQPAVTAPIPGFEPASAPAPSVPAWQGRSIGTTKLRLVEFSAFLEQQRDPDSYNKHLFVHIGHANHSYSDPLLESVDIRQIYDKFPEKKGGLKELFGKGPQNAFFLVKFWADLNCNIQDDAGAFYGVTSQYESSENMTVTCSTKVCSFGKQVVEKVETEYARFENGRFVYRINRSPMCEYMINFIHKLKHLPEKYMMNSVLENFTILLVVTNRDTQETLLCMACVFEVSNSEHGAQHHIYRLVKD

SMILES	TEAD2 ΔTm (TEAD2) [°C]	TEAD4 ΔTm (TEAD4) [°C]	TEAD3 ΔTm (TEAD3) [°C]	TEAD1 ΔTm (TEAD1) [°C]
CNS(=O)(=O)[C@@H]1CC1c1cc(-c2ccc(C(F)(F)F)cc2)cc2cn(C)nc12 (mixture of isomers) [Example 50]	2.5	5.7	0.7	4.2
O=C(O)[C@@H]1CC1c1cc(Oc2ccc(C(F)(F)F)cc2)cn2ccnc12 (mixture of isomers) [Example 83]	8.0	3.6	1.4	2.7
CNC(=O)[C@@H]1CC1c1cc(Oc2ccc(C(F)(F)F)cc2)cn2ccnc12 (mixture of isomers) [Example 84]	6.5	3.1	1.2	1.0
Cn1cc2cc(Oc3ccc(C(F)(F)F)cc3)cc([C@@H]3C[C@H]3C(=O)O)c2n1 (single isomer, unassigned) [Example 16a]	13.7	11.4	2	11.3
Cn1cc2cc(Oc3ccc(C(F)(F)F)cc3)cc([C@H]3C[C@@H]3C(=O)O)c2n1 (single isomer, unassigned) [Example 16b]	14.9	12.5	15	12.1
[2H]C([2H])([2H])n1cc2cc(Oc3ccc(C(F)(F)F)cc3)cc([C@@H]3C[C@H]3C(=O)NC)c2n1 (single isomer, unassigned) [Example 76a]	10.3	4.7	0.6	5.4
[2H]C([2H])([2H])n1cc2cc(Oc3ccc(C(F)(F)F)cc3)cc([C@H]3C[C@@H]3C(=O)NC)c2n1 (single isomer, unassigned) [Example 76b]	15.4	12.6	10.9	11.5
Cn1cc2cc(Oc3ccc(C(F)(F)F)cc3)cc(C3C[C@H]3C(=O)N3CC4CC3[C@H](O)[C@H]4O)c2n1 (single isomer, unassigned) [Example 106]	9.9	8.5	2.2	6.4
Cn1cc2cc(Oc3ccc(C(F)(F)F)cc3)cc(C3C[C@H]3C(=O)NC[C@H]3C[C@@H](O)[C@@H](O)C3O)c2n1 (single isomer, unassigned) [Example 107]	4.9	6.1	1.1	5.0
Cn1cc2cc(Oc3ccc(C(F)(F)F)cc3)cc(C3C[C@H]3C(=O)N3CCS(=O)(=O)CC3)c2n1 (single isomer, unassigned) [Example 110]	5.2	4.1	1.0	4.1
Cn1cc2cc(Oc3ccc(C(F)(F)F)cc3)cc(C3C[C@H]3C(=O)N3CCP(C)(=O)CC3)c2n1 (single isomer, unassigned) [Example 111]	3.7	3.2	0.7	3.0
Cn1cc2cc(Oc3ccc(C(F)(F)F)cc3)cc(C3C[C@H]3C(=O)N3CC(C(=O)O)C3)c2n1 (single isomer, unassigned) [Example 113]	5.7	4.2	1.5	4.1
Cn1cc2cc(Oc3ccc(C(F)(F)F)cc3)cc(C3C[C@H]3C(=O)N3CCOC4(COC4)C3)c2n1 (single isomer, unassigned) [Example 114]	7.1	7.1	1.5	4.6
CN1CCC2(CN(C(=O)[C@@H]3CC3c3cc(Oc4ccc(C(F)(F)F)cc4)cc4cn(C)nc34)C2)C1=O (single isomer, unassigned) [Example 115]	3.5	3.5	1.3	4.2
Cn1cc2cc(Oc3ccc(C(F)(F)F)cc3)cc(C3C[C@H]3C(=O)N3C4COCC3CC(O)C4)c2n1 (single isomer, unassigned) [Example 116a]	6.1	6.1	1.8	4.6
Cn1cc2cc(Oc3ccc(C(F)(F)F)cc3)cc(C3C[C@H]3C(=O)N3C4COCC3CC(O)C4)c2n1 (single isomer, unassigned) [Example 116b]	5.3	7.1	2.2	5.5
Cn1cc2nc(Oc3ccc(C(F)(F)F)cc3)cc([C@@H]3C[C@H]3C(=O)N3C4COCC3C4)c2n1 (single isomer, unassigned) [Example 118]	6.2	6.1	1.6	4.6
Cn1cc2nc(Oc3ccc(C(F)(F)F)cc3)cc([C@@H]3C[C@H]3C(=O)N3C[C@H]4C[C@@H]3CO4)c2n1 (single isomer, unassigned) [Example 119]	6.1	4.7	1.6	4.2
Cn1cc2nc(Oc3ccc(C(F)(F)F)cc3)cc([C@@H]3C[C@H]3C(=O)N3C[C@@H]4C[C@H]3CO4)c2n1 (single isomer, unassigned) [Example 120]	6.5	4.5	1.2	4.1
Cn1cc2cc(Oc3ccc(C(F)(F)F)cc3)cc([C@@H]3C[C@H]3C(=O)N3CC4CC3CN4)c2n1 (single isomer, unassigned) [Example 122]	6.5	4.9	1.8	5.9
Cn1cc2cc(Oc3cc(F)ccc3C(F)(F)F)cc([C@@H]3C[C@H]3C(=O)N3CC(O)C3)c2n1 (single isomer, unassigned) [Example 133]	8.5	4.9	0.3	1.1
Cn1cc2cc(Oc3ccc(C(F)(F)F)cc3)cc([C@@H]3C[C@H]3C(=O)N3CCC34CC(O)C4)c2n1 (single isomer, unassigned) [Example 136]	12.4	10.3	1.7	7.1
Cn1cc2cc(Oc3cc(F)c(F)c(F)c3)cc([C@@H]3C[C@H]3C(=O)N3C[C@@H]4C[C@H]3C[C@@H]4O)c2n1 (single isomer, unassigned) [Example 138]	6.8	6.4	2.3	4.2
CNS(=O)(=O)CCc1cc(N(C)c2ccc(C(F)(F)F)cc2)cc2cn(C)nc12 [Example 49]	2.6	5.1	0.1	3.2

Second part, the compound after the results:

TEAD2 ΔTm (TEAD2) [°C]	TEAD4 ΔTm (TEAD4) [°C]	TEAD3 ΔTm (TEAD3) [°C]	TEAD1 ΔTm (TEAD1) [°C]	SMILES
10.1	6.8	1.0	4.9	Cn1cc2cc(O[C@H]3CC[C@@H](C(F)(F)F)CC3)cc([C@@H]3C[C@H]3C(=O)N3CC(O)C3)c2n1 (single isomer, unassigned) [Example 87a]
2.6	0.3	0.0	−0.4	Cn1cc2cc(O[C@H]3CC[C@@H](C(F)(F)F)CC3)cc([C@H]3C[C@@H]3C(=O)N3CC(O)C3)c2n1 (single isomer, unassigned) [Example 87b]
1.5	0.1	0.1	−0.3	Cn1cc2cc(Oc3ccc(C(F)(F)F)cn3)cc([C@@H]3C[C@H]3C(=O)N3CC(O)C3)c2n1 (single isomer, unassigned) [Example 88a]
3.3	−0.2	0.2	0.0	Cn1cc2cc(Oc3ccc(C(F)F)cc3)cc([C@@H]3C[C@H]3C(=O)N3CC(O)C3)c2n1 (single isomer, unassigned) [Example 89a]
2.6	0.6	0.2	−0.2	Cn1cc2cc(Oc3ccc(F)c(F)c3)cc([C@@H]3C[C@H]3C(=O)N3CC(O)C3)c2n1 (single isomer, unassigned) [Example 90a]
2.2	3.4	0.9	1.8	Cn1cc2nc(Oc3ccc(C(F)(F)F)cc3)nc([C@H]3C[C@@H]3C(=O)N3CC(O)C3)c2n1 (single isomer, unassigned) [Example 109b]
9.5	8.6	2.0	7.2	CO[C@H]1CN(C(=O)[C@@H]2C[C@H]2c2cc(Oc3ccc(C(F)(F)F)cc3)cc3cn(C)nc23)C[C@@H]1O (single isomer, unassigned) [Example 112a]
